“Also recorded” adds a separate entry of the source. Read-outs that look alike come from different tables or passages of the source.

The test system of data set [1] is MPTP-treated C57 Black mice. The experiment in a line: MPTP mouse model of PD, striatal monoamine levels. The class given is in vivo. The procedure: As a prelude to assessment of PIP-1 in a mouse model of PD, the ability of PIP-1 to penetrate the blood-brain-barrier is first assessed. PIP-1 is injected i.p. at a dose of 50 mg/kg, and mice are sacrificed at 1 and 2 h post injection. After sacrifice, to establish the presence of PIP-1 in the brain the striatum was dissected, sonicated in perchloric acid, and centrifuged. The clarified supernatant is analyzed by HPLC. No endogenous compounds interfere with this assay for PIP-1 as no signal is detected in dissected striata from non-treated mice. As shown by FIG. 21A, the striatal penetrance of PIP-1 is at the level of 70 ng/mg of protein. […] Given this blood-brain-barrier penetrance by PIP-1, the compound is assessed in the MPTP mouse model of PD. Mice are given a one-time i.p. injection of PIP-1 followed 30 minutes later by an injection of MPTP (30 mg/kg). PIP-1 is assessed at concentrations of 0 mg/kg, 1 mg/kg, 5 mg/kg, 10 mg/kg, and 50 mg/kg, and five mice are used in each group. After 30 days, the mice are sacrificed and the striatum dissected and analyzed by HPLC to determine the levels of dopamine and various dopamine metabolites. […]

In data set [2] the test system is PARG. Put plainly: Table 2: small molecules tested for PARG inhibition activity (relative to PIP-1). It counts as biochemical.
In data set [3] the test system is neuronally differentiated SK-N-SH cells. Put plainly: Protection from rotenone induced toxicity in neuronally differentiated SK-N-SH cells. Particulars: Homo sapiens, 10 μM rotenone. The class given is cell-based. The protocol: (§1) In vivo MPTP is metabolized to its active form, the 1-methyl-4-phenylpyridinium ion (MPP^+), and MPP^+ has proven very useful in a variety of cell culture models of PD. To determine the protective effect of PIP-1 on cells subjected to MPP^+ insult, PC-12 (differentiated as above) and SK-N-SH (differentiated with retinoic acid for 12 days) cells are treated with 10 μM MPP^+ and a range of PIP-1 concentrations, and cell death is assessed by propidium iodide staining and flow cytometry. […] As shown in FIGS. 20A and 20B, PIP-1 also protects differentiated PC-12 and SK-N-SH cells from rotenone-induced toxicity as well.
(§2) Cell culture conditions: HL-60 and SK-N-SH cells are grown in RPMI 1640 media supplemented with 10% FBS and PC-12 cells are grown in RPMI 1640 media supplemented with 10% HS and 5% FBS. All cell lines are incubated at 37° C. in a 5% CO2, 95% air atmosphere. HL-60 cells are split every two to three days as needed and SK-N-SH cells are split when they reach approximately 90% confluency at a 1:6 ratio. […]
(§3) Protection of Rotenone and MPP^+ induced toxicity in PC-12 and SK-N-SH cells: SK-N-SH and PC-12 cells are neuronally differentiated as described above. […] The cells are then washed in PBS and the viability is determined by adding propidium iodide to 1 μg/mL and measuring the fluorescent intensity of each cell by flow cytometry.

Data set [4] concerns neuronally differentiated PC-12 cells. Put plainly: Protection from MPP+ induced toxicity in neuronally differentiated PC-12 cells. It counts as cell-based. The conditions noted are these: 10 μM MPP+, read-out: EC50 (IC50) for protection from MPP+ induced cell death. The protocol: as §1, §2, §3
In data set [5] the test system is differentiated PC-12 and SK-N-SH cells. The experiment in a line: Cellular toxicity in differentiated PC-12 and SK-N-SH cells. It counts as cell-based. Particulars: at concentrations up to 100 μM. The procedure: as §1
Protection of Rotenone and MPP^+ induced toxicity in PC-12 and SK-N-SH cells: SK-N-SH and PC-12 cells are neuronally differentiated as described above. 10 μM rotenone, 10 μM MPP^+ and various concentrations of PIP-1 or its derivatives are added to the cells and incubated for 72 h. The cells are then washed in PBS and the viability is determined by adding propidium iodide to 1 μg/mL and measuring the fluorescent intensity of each cell by flow cytometry.

The EC50 is the concentration needed to bring the measured effect to its halfway point. On to `CN(C)c1cnn(-c2ccccc2)c(=O)c1N` [PIP-1, 4-Amino-5-dimethylamino-2-phenyl-2H-pyridazin-3-one], for which, in data set [1] (50 mg/kg PIP-1 i.p. 30 min before MPTP 30 mg/kg, after 30 days), the “Striatal levels of dopamine and dopamine metabolites (DOPAC, HVA) in MPTP-treated mice” value is listed as “very similar to the control mice”. In data set [1] (mice, without MPTP), the “Effect of PIP-1 by itself on levels of dopamine or dopamine metabolites” value is on record as “does not appear to have any adverse effects”. Also, the Activity result in data set [2] is “good”. The EC50 in data set [3] is 2180 nM; in data set [4] (72 h), 1810 nM; in data set [4] (Rattus norvegicus, PC-12, 72 h), about 1800 nM. In addition, the “Cellular toxicity / adverse effects on differentiated neurons” value in data set [5] is reported as “no adverse effects; also recorded: no cellular toxicity”.

(Values after patent publication US20090012088A1 (priority 2005, published 2009).)
